In the NIST ThermoML archive (doi:10.1016/j.jct.2011.02.018):

Assay: xn = mol fraction of the nth substance listed
Settings: 101 kPa, Liquid, Vibrating tube method

COC(C)(C)C [2-methoxy-2-methylpropane] + CO
mass density [kg/m3]
Settings | 293.15 K | 298.15 K
x1 = 0.01 | 790.62 | 785.93
x1 = 0.0201 | 789.69 | 785
x1 = 0.0301 | 788.74 | 784.01
x1 = 0.0402 | 787.83 | 783.09
x1 = 0.0502 | 786.96 | 782.24
x1 = 0.0601 | 786.1 | 781.36
x1 = 0.0696 | 785.32 | 780.58
x1 = 0.0799 | 784.47 | 779.71
x1 = 0.0888 | 783.72 | 778.95
x1 = 0.1008 | 782.79 | 778
x1 = 0.1498 | 779.11 | 774.25
x1 = 0.1945 | 776.01 | 771.13
x1 = 0.26 | 771.99 | 767.08
x1 = 0.3006 | 769.58 | 764.65
x1 = 0.3482 | 766.92 | 761.97
x1 = 0.3841 | 765.07 | 760.07
x1 = 0.4527 | 761.67 | 756.67
x1 = 0.5004 | 759.46 | 754.42
x1 = 0.5458 | 757.52 | 752.46
x1 = 0.6009 | 755.29 | 750.18
x1 = 0.6459 | 753.48 | 748.37
x1 = 0.7014 | 751.36 | 746.23
x1 = 0.7449 | 749.75 | 744.6
x1 = 0.7986 | 747.76 | 742.58
x1 = 0.8504 | 745.92 | 740.74
x1 = 0.8978 | 744.27 | 739.05
x1 = 0.9091 | 743.88 | 738.66
x1 = 0.9184 | 743.53 | 738.33
x1 = 0.9259 | 743.26 | 738.07
x1 = 0.9379 | 742.81 | 737.6
x1 = 0.9473 | 742.48 | 737.28
x1 = 0.9598 | 742.06 | 736.83
x1 = 0.9706 | 741.68 | 736.46
x1 = 0.9791 | 741.36 | 736.13
x1 = 0.9881 | 741.04 | 735.82
